{"source": "patent US8426408B2", "about": "“Pyrimidine inhibitors of kinases” (AbbVie Inc., priority 2009, dated 2013)", "key": {"[1]": {"biological_target": "T1, Aurora A (Homo sapiens, UniProt O14965)", "T1 sequence (O14965 1-403)": "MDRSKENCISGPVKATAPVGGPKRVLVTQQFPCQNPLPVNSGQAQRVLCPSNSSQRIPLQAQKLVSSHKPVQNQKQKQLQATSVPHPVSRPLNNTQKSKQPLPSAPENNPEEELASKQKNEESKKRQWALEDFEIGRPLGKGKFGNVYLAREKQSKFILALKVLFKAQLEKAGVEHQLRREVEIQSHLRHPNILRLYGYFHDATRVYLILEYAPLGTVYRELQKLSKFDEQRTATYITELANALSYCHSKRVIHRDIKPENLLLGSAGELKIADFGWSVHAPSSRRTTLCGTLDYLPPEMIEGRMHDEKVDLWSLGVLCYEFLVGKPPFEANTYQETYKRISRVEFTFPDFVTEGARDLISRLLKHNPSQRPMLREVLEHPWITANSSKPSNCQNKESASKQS", "experiment": "Aurora A enzyme inhibition (time-resolved fluorescence, STK substrate-2)", "format": "biochemical", "conditions": "1 mM ATP", "summary_of_the_method": "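Phosphorylation of biotinylated STK substrate-2 at 1 mM ATP, 1 h, Hepes buffer pH 7.4 (MgCl2, sodium orthovanadate, Triton X-100). After EDTA quench, 665/615 nm time-resolved fluorescence ratio read via europium anti-phospho antibody and SA-XL665; IC50 from exponential fit versus inhibitor concentration.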"}, "[2]": {"tested_on": "NCI-H1299 cells", "experiment": "Induction of polyploidy in H1299", "format": "cell-based, Human", "conditions": "NCI-H1299, 48 hours; for EC15: Homo sapiens, read-out: EC15 (concentration of inhibitor necessary to induce polyploidy in 15% of cells)", "summary_of_the_method": "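Potency is given as EC15, the inhibitor concentration giving 15% polyploid cells, from log dose-response least-squares analysis. Polyploid cells (nuclear area >750 μ^2, ≥4N) were counted by Hoechst high-content microscopy. H1299 cells had been exposed for 48 h at 37 C in duplicate, then fixed in 3% formalin.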"}}, "data": [{"smiles": "Cn1cc(Nc2ncc(Cl)c(N[C@@H]3[C@@H]4CC[C@@H](C4)[C@@H]3C(N)=O)n2)cn1.Cn1cc(Nc2ncc(Cl)c(N[C@H]3[C@H]4CC[C@H](C4)[C@H]3C(N)=O)n2)cn1", "note": "(mixture of isomers) [Example 113, (1R,2R,3S,4S)-3-({5-chloro-2-[(1-methyl-1H-pyrazol-4-yl)amino]pyrimidin-4-yl}amino)bicyclo[2.2.1]heptane-2-carboxamide and (1S,2S,3R,4R)-3-({5-chloro-2-[(1-methyl-1H-pyrazol-4-yl)amino]pyrimidin-4-yl}amino)bicyclo[2.2.1]heptane-2-carboxamide]", "values": [{"measurement": "Ki", "setting": "[1]", "value": "< 0.1", "unit": "µM"}, {"measurement": "EC15 (concentration of inhibitor necessary to induce polyploidy in 15% of cells)", "setting": "[2]", "value": "A (“A” represents an EC15 of less than 0.1 μM)"}]}, {"smiles": "NC(=O)[C@@H]1[C@H](Nc2nc(Nc3cnn(CCc4cccc(Cl)c4)c3)ncc2Cl)[C@H]2C=C[C@@H]1C2", "note": "[Example 158, (1S,2S,3R,4R)-3-{[5-chloro-2-({1-[2-(3-chlorophenyl)ethyl]-1H-pyrazol-4-yl}amino)pyrimidin-4-yl]amino}bicyclo[2.2.1]hept-5-ene-2-carboxamide]", "values": [{"measurement": "Ki", "setting": "[1]", "value": "< 0.1", "unit": "µM"}, {"measurement": "EC15", "setting": "[2]", "value": "< 0.1", "unit": "µM"}]}, {"smiles": "NC(=O)[C@H]1[C@@H]2CC[C@@H](C2)[C@H]1Nc1nc(Nc2cnn(CCO)c2)ncc1Cl", "note": "[Example 93, (1R,2S,3R,4S)-3-[(5-chloro-2-{[1-(2-hydroxyethyl)-1H-pyrazol-4-yl]amino}pyrimidin-4-yl)amino]bicyclo[2.2.1]heptane-2-carboxamide]", "values": [{"measurement": "Ki", "setting": "[1]", "value": "< 0.1", "unit": "µM"}, {"measurement": "EC15", "setting": "[2]", "value": "< 0.1", "unit": "µM"}]}, {"smiles": "Cc1cccc(Cn2cc(Nc3ncc(Cl)c(N[C@H]4[C@@H](C(N)=O)[C@@H]5C=C[C@H]4C5)n3)cn2)c1", "note": "[Example 178, (1S,2S,3R,4R)-3-[(5-chloro-2-{[1-(3-methylbenzyl)-1H-pyrazol-4-yl]amino}pyrimidin-4-yl)amino]bicyclo[2.2.1]hept-5-ene-2-carboxamide]", "values": [{"measurement": "Ki", "setting": "[1]", "value": "< 0.1", "unit": "µM"}, {"measurement": "EC15", "setting": "[2]", "value": "< 0.1", "unit": "µM"}]}, {"smiles": "NC(=O)[C@@H]1[C@H](Nc2nc(Nc3cnn([C@H]4CCOC4)c3)ncc2Cl)[C@H]2C=C[C@@H]1C2", "note": "[Example 108, (1S,2S,3R,4R)-3-{[5-chloro-2-({1-[(3S)-tetrahydrofuran-3-yl]-1H-pyrazol-4-yl}amino)pyrimidin-4-yl]amino}bicyclo[2.2.1]hept-5-ene-2-carboxamide]", "values": [{"measurement": "Ki", "setting": "[1]", "value": "< 0.1", "unit": "µM"}, {"measurement": "EC15", "setting": "[2]", "value": "< 0.1", "unit": "µM"}]}, {"smiles": "COc1ccc(Cn2cc(Nc3ncc(Cl)c(N[C@H]4[C@@H](C(N)=O)[C@@H]5C=C[C@H]4C5)n3)cn2)cc1F", "note": "[Example 192, (1S,2S,3R,4R)-3-[(5-chloro-2-{[1-(3-fluoro-4-methoxybenzyl)-1H-pyrazol-4-yl]amino}pyrimidin-4-yl)amino]bicyclo[2.2.1]hept-5-ene-2-carboxamide]", "values": [{"measurement": "Ki", "setting": "[1]", "value": "< 0.1", "unit": "µM"}, {"measurement": "EC15", "setting": "[2]", "value": "< 0.1", "unit": "µM"}]}, {"smiles": "CCn1cc(Nc2ncc(Br)c(N[C@@H]3[C@H](C(N)=O)[C@H]4C=C[C@@H]3C4)n2)cn1.CCn1cc(Nc2ncc(Br)c(N[C@H]3[C@@H](C(N)=O)[C@@H]4C=C[C@H]3C4)n2)cn1", "note": "(mixture of isomers) [Example 31, (1S,2S,3R,4R)-3-({5-bromo-2-[(1-ethyl-1H-pyrazol-4-yl)amino]pyrimidin-4-yl}amino)bicyclo[2.2.1]hept-5-ene-2-carboxamide and (1R,2R,3S,4S)-3-({5-bromo-2-[(1-ethyl-1H-pyrazol-4-yl)amino]pyrimidin-4-yl}amino)bicyclo[2.2.1]hept-5-ene-2-carboxamide]", "values": [{"measurement": "Ki", "setting": "[1]", "value": "< 0.1", "unit": "µM"}, {"measurement": "EC15 (concentration of inhibitor necessary to induce polyploidy in 15% of cells)", "setting": "[2]", "value": "A (“A” represents an EC15 of less than 0.1 μM)"}]}, {"smiles": "COc1cccc(Cn2cc(Nc3ncc(Br)c(N[C@H]4[C@@H](C(N)=O)[C@@H]5C=C[C@H]4C5)n3)cn2)c1", "note": "[Example 159, (1S,2S,3R,4R)-3-[(5-bromo-2-{[1-(3-methoxybenzyl)-1H-pyrazol-4-yl]amino}pyrimidin-4-yl)amino]bicyclo[2.2.1]hept-5-ene-2-carboxamide]", "values": [{"measurement": "Ki", "setting": "[1]", "value": "< 0.1", "unit": "µM"}, {"measurement": "EC15", "setting": "[2]", "value": "< 0.1", "unit": "µM"}]}, {"smiles": "CC(C)CCn1cc(Nc2ncc(Cl)c(N[C@H]3[C@@H](C(N)=O)[C@@H]4C=C[C@H]3C4)n2)cn1", "note": "[Example 99, (1S,2S,3R,4R)-3-[(5-chloro-2-[1-(3-methylbutyl)-1H-pyrazol-4-yl]aminopyrimidin-4-yl)amino]bicyclo[2.2.1]hept-5-ene-2-carboxamide]", "values": [{"measurement": "Ki", "setting": "[1]", "value": "< 0.1", "unit": "µM"}, {"measurement": "EC15", "setting": "[2]", "value": "< 0.1", "unit": "µM"}]}, {"smiles": "Cn1cc(Nc2ncc(Cl)c(N[C@@H]3CC[C@@H]3C(N)=O)n2)cn1.Cn1cc(Nc2ncc(Cl)c(N[C@H]3CC[C@H]3C(N)=O)n2)cn1", "note": "(mixture of isomers) [Example 151, (1S,2R)-2-({5-chloro-2-[(1-methyl-1H-pyrazol-4-yl)amino]pyrimidin-4-yl}amino)cyclobutanecarboxamide and (1R,2S)-2-({5-chloro-2-[(1-methyl-1H-pyrazol-4-yl)amino]pyrimidin-4-yl}amino)cyclobutanecarboxamide]", "values": [{"measurement": "Ki", "setting": "[1]", "value": "< 0.1", "unit": "µM"}, {"measurement": "EC15 (concentration of inhibitor necessary to induce polyploidy in 15% of cells)", "setting": "[2]", "value": "A (“A” represents an EC15 of less than 0.1 μM)"}]}, {"smiles": "CC(O)Cn1cc(Nc2ncc(C(F)(F)F)c(NC3C4C=CC(C4)C3C(N)=O)n2)cn1", "note": "(mixture of isomers) [Example 19, (1R,2R,3S,4S)-3-{[2-({1-[(2R)-2-hydroxypropyl]-1H-pyrazol-4-yl}amino)-5-(trifluoromethyl)pyrimidin-4-yl]amino}bicyclo[2.2.1]hept-5-ene-2-carboxamide and (1S,2S,3R,4R)-3-{[2-({1-[(2R)-2-hydroxypropyl]-1H-pyrazol-4-yl}amino)-5-(trifluoromethyl)pyrimidin-4-yl]amino}bicyclo[2.2.1]hept-5-ene-2-carboxamide]", "values": [{"measurement": "Ki", "setting": "[1]", "value": "< 0.1", "unit": "µM"}, {"measurement": "EC15 (concentration of inhibitor necessary to induce polyploidy in 15% of cells)", "setting": "[2]", "value": "A (“A” represents an EC15 of less than 0.1 μM)"}]}, {"smiles": "Cn1cc(Nc2ncc(Br)c(Nc3ccccc3C3(O)CCC3)n2)cn1", "note": "[Example 132, 1-[2-({5-bromo-2-[(1-methyl-1H-pyrazol-4-yl)amino]pyrimidin-4-yl}amino)phenyl]cyclobutanol]", "values": [{"measurement": "Ki", "setting": "[1]", "value": "< 0.1", "unit": "µM"}, {"measurement": "EC15", "setting": "[2]", "value": "0.1 to 1", "unit": "µM"}]}, {"smiles": "CCn1cc(Nc2ncc(Cl)c(N[C@@H]3[C@H](C(N)=O)[C@@H]4C=C[C@H]3C4)n2)cn1.CCn1cc(Nc2ncc(Cl)c(N[C@H]3[C@@H](C(N)=O)[C@H]4C=C[C@@H]3C4)n2)cn1", "note": "(mixture of isomers) [Example 121, (1S,2R,3S,4R)-3-({5-chloro-2-[(1-ethyl-1H-pyrazol-4-yl)amino]pyrimidin-4-yl}amino)bicyclo[2.2.1]hept-5-ene-2-carboxamide and (1R,2S,3R,4S)-3-({5-chloro-2-[(1-ethyl-1H-pyrazol-4-yl)amino]pyrimidin-4-yl}amino)bicyclo[2.2.1]hept-5-ene-2-carboxamide]", "values": [{"measurement": "Ki", "setting": "[1]", "value": "< 0.1", "unit": "µM"}, {"measurement": "EC15 (concentration of inhibitor necessary to induce polyploidy in 15% of cells)", "setting": "[2]", "value": "A (“A” represents an EC15 of less than 0.1 μM)"}]}, {"smiles": "CC(C)NC(=O)C1CCCC1Nc1nc(Nc2cnn(C3CCNCC3)c2)ncc1Cl", "note": "(racemic) [Example 163, (1S,2R)-2-[(5-chloro-2-{[1-(piperidin-4-yl)-1H-pyrazol-4-yl]amino}pyrimidin-4-yl)amino]-N-isopropylcyclopentanecarboxamide and (1R,2S)-2-[(5-chloro-2-{[1-(piperidin-4-yl)-1H-pyrazol-4-yl]amino}pyrimidin-4-yl)amino]-N-isopropylcyclopentanecarboxamide]", "values": [{"measurement": "Ki", "setting": "[1]", "value": "< 0.1", "unit": "µM"}, {"measurement": "EC15 (concentration of inhibitor necessary to induce polyploidy in 15% of cells)", "setting": "[2]", "value": "A (“A” represents an EC15 of less than 0.1 μM)"}]}, {"smiles": "NC(=O)[C@@H]1[C@H](Nc2nc(Nc3cnn(-c4ccccc4)c3)ncc2Cl)[C@H]2C=C[C@@H]1C2", "note": "[Example 174, (1S,2S,3R,4R)-3-({5-chloro-2-[(1-phenyl-1H-pyrazol-4-yl)amino]pyrimidin-4-yl}amino)bicyclo[2.2.1]hept-5-ene-2-carboxamide]", "values": [{"measurement": "Ki", "setting": "[1]", "value": "< 0.1", "unit": "µM"}, {"measurement": "EC15", "setting": "[2]", "value": "< 0.1", "unit": "µM"}]}, {"smiles": "NC(=O)[C@@H]1[C@H](Nc2nc(Nc3cnn([C@@H]4CCOC4)c3)ncc2Br)[C@H]2C=C[C@@H]1C2", "note": "[Example 116, (1S,2S,3R,4R)-3-{[5-bromo-2-({1-[(3R)-tetrahydrofuran-3-yl]-1H-pyrazol-4-yl}amino)pyrimidin-4-yl]amino}bicyclo[2.2.1]hept-5-ene-2-carboxamide]", "values": [{"measurement": "Ki", "setting": "[1]", "value": "< 0.1", "unit": "µM"}, {"measurement": "EC15", "setting": "[2]", "value": "< 0.1", "unit": "µM"}]}, {"smiles": "Cn1cc(Nc2ncc(C(F)(F)F)c(N[C@@H]3[C@H](C(N)=O)[C@H]4C=C[C@@H]3C4)n2)cn1.Cn1cc(Nc2ncc(C(F)(F)F)c(N[C@H]3[C@@H](C(N)=O)[C@@H]4C=C[C@H]3C4)n2)cn1", "note": "(mixture of isomers) [Example 10, (1S,2S,3R,4R)-3-{[2-[(1-methyl-1H-pyrazol-4-yl)amino]-5-(trifluoromethyl)pyrimidin-4-yl]amino}bicyclo[2.2.1]hept-5-ene-2-carboxamide and (1R,2R,3S,4S)-3-{[2-[(1-methyl-1H-pyrazol-4-yl)amino]-5-(trifluoromethyl)pyrimidin-4-yl]amino}bicyclo[2.2.1]hept-5-ene-2-carboxamide]", "values": [{"measurement": "Ki", "setting": "[1]", "value": "< 0.1", "unit": "µM"}, {"measurement": "EC15 (concentration of inhibitor necessary to induce polyploidy in 15% of cells)", "setting": "[2]", "value": "A (“A” represents an EC15 of less than 0.1 μM)"}]}, {"smiles": "NC(=O)[C@@H]1[C@H](Nc2nc(Nc3cnn(C4CCC4)c3)ncc2Cl)[C@H]2C=C[C@@H]1C2", "note": "[Example 118, (1S,2S,3R,4R)-3-({5-chloro-2-[(1-cyclobutyl-1H-pyrazol-4-yl)amino]pyrimidin-4-yl}amino)bicyclo[2.2.1]hept-5-ene-2-carboxamide]", "values": [{"measurement": "Ki", "setting": "[1]", "value": "< 0.1", "unit": "µM"}, {"measurement": "EC15", "setting": "[2]", "value": "< 0.1", "unit": "µM"}]}]}
